# Laboratory results taken from PMC8645997, “Population Pharmacokinetics of Polymyxin B in Obese Patients for Resistant Gram-Negative Infections” (Frontiers in Pharmacology, 2021).
# Where a SMILES comes first, the peptide text is derived from it. Bridges are numbered along the chain shown (N, C = ends). [ ]: non-standard residue; d: D form. The star is where a group is joined. X1 = CC[C@H](C)CCCCC(=O)*; Dab = NCC[C@H](N)C(=O)O
# Assays:
# [1] = intermediate to high protein binding; ref Sandri et al., 2013; Abodakpi et al., 2015; Avedissian et al., 2019; cited from earlier work
# Description: Obesity can cause related pathophysiological changes that could theoretically alter the PK characteristic of drugs, such as increased Vd, altered hepatic metabolism, renal CL, and protein binding. An understanding of how the Vd of a drug changes in obesity is critical because this parameter determines loading-dose selection ([Hanley et al., 2010]). Vd is affected by physicochemical property (lipophilicity or hydrophilicity), plasma protein binding rate, and tissue blood flow ([Al-Dorzi et al., 2014]; [Polso et al., 2014]). Hydrophilic drugs typically have a low Vd, poor tissue penetration, les ...
# [2] = cited from earlier work
# Description: As a weight-based dosing antibiotic with a narrow therapeutic window, polymyxin B regimen in obese patients is particularly concerning. The present study developed a two-compartment model to describe the population PK profile of polymyxin B in obese patients. […] In terms of V and V2 estimates, the values varied widely between studies ([Avedissian et al., 2019]). Compared with the PK parameters reported by our group and Sandri et al, the typical V value (11.24 L, Table 2) was higher than thos ... || Obesity can cause related pathophysiological changes that could theoretically alter the PK characteristic of drugs, such as increased Vd, altered hepatic metabolism, renal CL, and protein binding. An understanding of how the Vd of a drug changes in obesity is critical because this parameter determines loading-dose selection ([Hanley et al., 2010]). Vd is affected by physicochemical property (lipophilicity or hydrophilicity), plasma protein binding rate, and tissue blood flow ([Al-Dorzi et al., 2014]; [Polso et al., 2014]). Hydrophilic drugs typically have a low Vd, poor tissue penetration, les ...
# [3] = Population PK modeling of polymyxin B plasma concentrations in obese patients (two-compartment model, Phoenix NLME); assay type: in vivo, human
# Method: This retrospective observational study was performed in the First Affiliated Hospital of Zhengzhou University between April 2018 and March 2021. The inclusion criteria for subjects were as follows: 1) patients ≥18 years old; 2) body mass index (BMI) ≥ 30; 3) patients had received intravenous polymyxin B (sulfate; polymyxin B for injection, Shanghai First Biochemical Pharmaceutical Co., Ltd.) for MDR Gram-negative infections; 4) blood sampling at steady state for therapeutic drug monitoring (TDM) was available. Subjects were excluded if 1) patients with continuous renal replacement therapy (CRRT) or extracorporeal membrane oxygenation (ECMO); 2) concentrations were below the lower limit of quantitation. The study protocols were approved by Zhengzhou University Medical Research and Ethics Committee (2021-KY-0441).
# Polymyxin B was given to all patients empirically with a 100–200 mg loading dose and a 50–100 mg maintenance dose twice daily. The routine infusion time was at least 1 hour. Polymyxin B treatment, including dosage, infusion time, and treatment course, was determined by their medical teams. Sampling procedures included the following two categories.
# From April 2018 to May 2019, 4-7 blood samples (mainly C0h, C1h, C1.5h, C2h, C4h, C6h, and C8h) were collected on day 4 to calculate the area under the concentration across 12 h at steady state (AUCss,12h). From June 2019 to March 2021, according to our previous study, a 2-point model using the limited sampling strategy was a practical approach to estimating polymyxin B AUCss,12h. Therefore, two blood samples (C0h and C2h) were collected. The infusion time was 1 hour ([Wang et al., 2020c]).
# Blood samples were immediately centrifuged at 3,500 × g for 10 min. The supernatant was collected and then stored at −80°C until analysis. Polymyxin B concentrations (i.e., the polymyxin B1 concentration plus the polymyxin B2 concentration) were analyzed using a validated high-performance liquid chromatography-mass spectrometry method published by our laboratory ([Wang et al., 2020b]). As previously reported, the assay was linear over 0.2–10.0 μg/ml for polymyxin B1 and 0.05–2.5 μg/ml for polymyxin B2. The intra- and inter-batch assay precision (RSD) ranged from 0 to 13.93% for quality control samples, and their corresponding accuracy (% relative error) ranged from −11.56 to 11.13% ([Wang et al., 2020b]). Since polymyxin B1 and B2 had similar structures, molecular weight, pharmacological activities, and pharmacokinetic characteristics, the plasma concentration of polymyxin B was summed to derive the total polymyxin B1 and B2 concentrations ([Tam et al., 2011]; [Manchandani et al., 2016]).
# Population PK modeling process was performed with the Phoenix® NLME software (v7.0, Pharsight, Mountain View, CA, USA). In brief, different PK models (one-, two-, or three-compartment models) were compared using the first-order conditional estimation-extended least-squares (FOCE ELS) method. The inter-individual variability (IIV) of PK parameters was assumed by additive, proportional, or mixed (additive plus proportional) models. The coefficient of variation (CV), the distribution of residuals in diagnostic plots, and the likelihood ratio test (-2 loglikelihood; -2LL) were used to evaluate the model. Following the basic structural modeling step, a stepwise process was used to consider several covariates, including age, TBW, BMI, IBW, ABW, sex, SOFA score, CrCL, adjusted CrCL, ideal CrCL, serum creatinine, and GFR. A drop >6.63 (p = 0.01) of objective function value (OFV; -2LL) for forward addition and an increase of OFV >10.83 (p = 0.001) for backward elimination were the inclusion criteria for covariates. After covariate selection, based on the scatter plot and ΔOFV (a drop of OFV >6.63), the relevant correlation between random effects was also explored.
# For model evaluation, the goodness-of-fit (GOF) plots were used to evaluate the reliability of the final model. […]
# [4] = daily dose ≥250 mg; 151 patients; 95% CI 1.15–16.25, p = 0.03; ref Nelson et al., 2015; cited from earlier work
# Method: From a toxicology perspective, the use of TBW-based dosing in obese patients can lead to polymyxin B overexposure and risk of acute kidney injury (AKI). In a retrospective study of 151 patients, Nelson et al. discovered that a daily dose ≥250 mg was an independent predictor of nephrotoxicity (OR 4.32, 95% CI 1.15–16.25, p = 0.03) in multivariate analysis ([Nelson et al., 2015]). […] These studies raised an important point abo ...
# [5] = obese patients, n = 26, iv, steady state
structure (smiles),measurement,setting,value
CC[C@H](C)CCCCC(=O)N[C@@H](CCN)C(=O)N[C@H](C(=O)N[C@@H](CCN)C(=O)N[C@H]1CCNC(=O)[C@H]([C@@H](C)O)NC(=O)[C@H](CCN)NC(=O)[C@H](CCN)NC(=O)[C@H](CC(C)C)NC(=O)[C@@H](Cc2ccccc2)NC(=O)[C@H](CCN)NC1=O)[C@@H](C)O [polymyxin B] (X1-[Dab]T[Dab][Dab][Dab][dF]L[Dab][Dab]T; lactam 4-C),protein binding,[1],58–90%
same,Vd,"[2]; low to intermediate Vd, ref Sandri et al., 2013, Abodakpi et al., 2015, Avedissian et al., 2019",6.3 to 47.2 L
same,"typical CL value, previous reports","[2]; previous reports, ref Avedissian et al., 2019",1.87 to 2.63 L/h
same,"V2 value, reported previously","[2]; ref Sandri et al., 2013, Wang et al., 2020c, 2021",10.57 to 11.97 L
same,"typical V value, reported previously","[2]; reported by our group and Sandri et al, ref Sandri et al., 2013, Wang et al., 2020c, Wang et al., 2021",6.22 to 6.98 L
same,"tvCL, bootstrap median","[3]; bootstrap, 1,000 samples",2.73
same,"tvQ, bootstrap median","[3]; bootstrap, 1,000 samples",7.71
same,"tvV2, bootstrap median","[3]; bootstrap, 1,000 samples",40.46
same,"tvV, bootstrap median","[3]; bootstrap, 1,000 samples",11.46
same,"tvV, typical value of central compartment distribution volume (V), final model estimate","[3]; obese patients (BMI >=30), n = 26, 142 plasma concentrations, iv, steady state",11.24 L
same,"tvCL, central compartment clearance, final model estimate",[3]; [5],2.86 L/h
same,"tvQ, inter-compartmental clearance, final model estimate",[3]; [5],7.36
same,"tvV2, peripheral compartment distribution volume, final model estimate",[3]; [5],39.70 L
same,"OR of nephrotoxicity (independent predictor, multivariate analysis)",[4],4.32
